Assay results taken from paper doi:10.1101/2024.08.19.608619, “Discovery of potent SARS-CoV-2 nsp3 macrodomain inhibitors uncovers lack of translation to cellular antiviral response” (bioRxiv, 2024).
Where two headings read alike, the source gives them in different places.

What was measured:
SARS-CoV-2 nsp3-mac1 [1] = target: T1, SARS-CoV-2 nsp3-mac1 (Severe acute respiratory syndrome coronavirus 2, UniProt P0DTD1); experiment: biochemical; set-up: SARS-CoV-2 nsp3 macrodomain TR-FRET single point, per cent inhibition, n=2
SARS-CoV-2 nsp3-mac1 [2] = target: T1, SARS-CoV-2 nsp3-mac1; experiment: biochemical; assay type: biochemical; conditions: SARS-CoV-2 nsp3 macrodomain TR-FRET single point
[3] = read-out: perc_inhibition_mean, batch_name=ASAP-0000385-001
[4] = read-out: perc_inhibition_mean, batch_name=ASAP-0000386-001
[5] = read-out: perc_inhibition_mean, batch_name=ASAP-0000387-001
[6] = read-out: perc_inhibition_mean, batch_name=ASAP-0000388-001
[7] = read-out: perc_inhibition_mean, batch_name=ASAP-0000389-001
[8] = read-out: perc_inhibition_mean, batch_name=ASAP-0000390-001
[9] = read-out: perc_inhibition_mean, batch_name=ASAP-0000391-001
[10] = read-out: perc_inhibition_mean, batch_name=ASAP-0000392-001
[11] = read-out: perc_inhibition_mean, batch_name=ASAP-0000393-001
[12] = read-out: perc_inhibition_mean, batch_name=ASAP-0000394-001
[13] = read-out: perc_inhibition_mean, batch_name=ASAP-0000395-001
[14] = read-out: perc_inhibition_mean, batch_name=ASAP-0000396-001
[15] = read-out: perc_inhibition_mean, batch_name=ASAP-0000397-001
[16] = read-out: perc_inhibition_mean, batch_name=ASAP-0000398-001
[17] = read-out: perc_inhibition_mean, batch_name=ASAP-0000399-001
[18] = read-out: perc_inhibition_mean, batch_name=ASAP-0000400-001

For `O=C(c1cnc2[nH]ncc2c1)N1CCC(c2ccn3ncc(C(=O)N4CCCCC4)c3c2)CC1` [ASAP-0000385], the inhibition at 49.75 µM (SARS-CoV-2 nsp3-mac1 [1]; [3]) was 15.8%, the inhibition at 99.5 µM (SARS-CoV-2 nsp3-mac1 [1]; [3]) was 34.4% and the perc_inhibition_mean (SARS-CoV-2 nsp3-mac1 [2]; concentration 49.75 uM) was 15.807%. For the same molecule, the perc_inhibition_mean (SARS-CoV-2 nsp3-mac1 [2]; concentration 99.5 uM) was 34.368%.

In the case of `NC(=O)c1ncccc1C(=O)N1CCC(c2ccn3ncc(C(=O)N4CCCCC4)c3c2)CC1` [ASAP-0000386], the inhibition at 49.75 µM (SARS-CoV-2 nsp3-mac1 [1]; [4]) is reported as 20%, the inhibition at 99.5 µM (SARS-CoV-2 nsp3-mac1 [1]; [4]) is reported as 36% and the perc_inhibition_mean (SARS-CoV-2 nsp3-mac1 [2]; concentration 49.75 uM) is reported as 19.978%. The perc_inhibition_mean (SARS-CoV-2 nsp3-mac1 [2]; concentration 99.5 uM) was 36.045%.

For `Cc1cc(C(=O)N2CCC(c3ccn4ncc(C(=O)N5CCCCC5)c4c3)CC2)[nH]n1` [ASAP-0000387], the inhibition at 49.75 µM (SARS-CoV-2 nsp3-mac1 [1]; [5]) was 16.6%, the inhibition at 99.5 µM (SARS-CoV-2 nsp3-mac1 [1]; [5]) was 31.6% and the perc_inhibition_mean (SARS-CoV-2 nsp3-mac1 [2]; concentration 49.75 uM) was 16.559%. For the same molecule, the perc_inhibition_mean (SARS-CoV-2 nsp3-mac1 [2]; concentration 99.5 uM) was 31.572%.

With `Cc1cc(N)ncc1C(=O)N1CCC(c2ccn3ncc(C(=O)N4CCCCC4)c3c2)CC1` [ASAP-0000388] the inhibition at 49.75 µM (SARS-CoV-2 nsp3-mac1 [1]; [6]) was 19.5%, the inhibition at 99.5 µM (SARS-CoV-2 nsp3-mac1 [1]; [6]) was 32.6% and the perc_inhibition_mean (SARS-CoV-2 nsp3-mac1 [2]; concentration 49.75 uM) was 19.535%. It also gave a perc_inhibition_mean (SARS-CoV-2 nsp3-mac1 [2]; concentration 99.5 uM) of 32.615%.

Molecule `O=C(c1cccnc1S)N1CCC(c2ccn3ncc(C(=O)N4CCCCC4)c3c2)CC1` [ASAP-0000389] has an inhibition at 49.75 µM (SARS-CoV-2 nsp3-mac1 [1]; [7]) of 32.3%, an inhibition at 99.5 µM (SARS-CoV-2 nsp3-mac1 [1]; [7]) of 52.7% and a perc_inhibition_mean (SARS-CoV-2 nsp3-mac1 [2]; concentration 49.75 uM) of 32.298%. It also gave a perc_inhibition_mean (SARS-CoV-2 nsp3-mac1 [2]; concentration 99.5 uM) of 52.653%.

For `Cc1nc(C(=O)N2CCC(c3ccn4ncc(C(=O)N5CCCCC5)c4c3)CC2)c(C)[nH]1` [ASAP-0000390], the inhibition at 49.75 µM (SARS-CoV-2 nsp3-mac1 [1]; [8]) was 16.8%, the inhibition at 99.5 µM (SARS-CoV-2 nsp3-mac1 [1]; [8]) was 27.5% and the perc_inhibition_mean (SARS-CoV-2 nsp3-mac1 [2]; concentration 49.75 uM) was 16.798%. For the same molecule, the perc_inhibition_mean (SARS-CoV-2 nsp3-mac1 [2]; concentration 99.5 uM) was 27.519%.

`CN1CCO[C@@H](CNC(=O)c2cnn3ccc(C4CCN(C(=O)c5ccccc5)CC4)cc23)C1` [ASAP-0000391] gave an inhibition at 49.75 µM (SARS-CoV-2 nsp3-mac1 [1]; [9]) of -12%, an inhibition at 99.5 µM (SARS-CoV-2 nsp3-mac1 [1]; [9]) of -11.5% and a perc_inhibition_mean (SARS-CoV-2 nsp3-mac1 [2]; concentration 49.75 uM) of -12.021%. For the same molecule, the perc_inhibition_mean (SARS-CoV-2 nsp3-mac1 [2]; concentration 99.5 uM) was -11.503%.

`CN1CCC[C@H](NC(=O)c2cnn3ccc(C4CCN(C(=O)c5ccccc5)CC4)cc23)C1` [ASAP-0000392] showed an inhibition at 49.75 µM (SARS-CoV-2 nsp3-mac1 [1]; [10]) of -6.99%, an inhibition at 99.5 µM (SARS-CoV-2 nsp3-mac1 [1]; [10]) of -5.44% and a perc_inhibition_mean (SARS-CoV-2 nsp3-mac1 [2]; concentration 49.75 uM) of -6.989%. It also gave a perc_inhibition_mean (SARS-CoV-2 nsp3-mac1 [2]; concentration 99.5 uM) of -5.439%.

In the case of `Cc1[nH]cnc1C(=O)N1CCC(c2ccn3ncc(C(=O)N4CCCCC4)c3c2)CC1` [ASAP-0000393], the inhibition at 49.75 µM (SARS-CoV-2 nsp3-mac1 [1]; [11]) is reported as 16.4%, the inhibition at 99.5 µM (SARS-CoV-2 nsp3-mac1 [1]; [11]) is reported as 32% and the perc_inhibition_mean (SARS-CoV-2 nsp3-mac1 [2]; concentration 49.75 uM) is reported as 16.419%. The perc_inhibition_mean (SARS-CoV-2 nsp3-mac1 [2]; concentration 99.5 uM) was 32.041%.

Molecule `O=C(CCN(Cc1cccc(Cl)c1)C(=O)[C@H]1CCOC1)N1CCNCC1` [ASAP-0000394] has an inhibition at 49.75 µM (SARS-CoV-2 nsp3-mac1 [1]; [12]) of 4.08%, an inhibition at 99.5 µM (SARS-CoV-2 nsp3-mac1 [1]; [12]) of -3.96% and a perc_inhibition_mean (SARS-CoV-2 nsp3-mac1 [2]; concentration 49.75 uM) of 4.078%. For the same molecule, the perc_inhibition_mean (SARS-CoV-2 nsp3-mac1 [2]; concentration 99.5 uM) was -3.965%.

Molecule `Cc1[nH]nc(C(=O)N2CCC(c3ccn4ncc(C(=O)N5CCCCC5)c4c3)CC2)c1C` [ASAP-0000395] has an inhibition at 49.75 µM (SARS-CoV-2 nsp3-mac1 [1]; [13]) of 18%, an inhibition at 99.5 µM (SARS-CoV-2 nsp3-mac1 [1]; [13]) of 33.8% and a perc_inhibition_mean (SARS-CoV-2 nsp3-mac1 [2]; concentration 49.75 uM) of 18.038%. For the same molecule, the perc_inhibition_mean (SARS-CoV-2 nsp3-mac1 [2]; concentration 99.5 uM) was 33.801%.

For `O=C(c1ccccc1)N1CCC(c2ccn3ncc(C(=O)N4CCCC[C@H](O)C4)c3c2)CC1` [ASAP-0000396], the inhibition at 49.75 µM (SARS-CoV-2 nsp3-mac1 [1]; [14]) was 17.8%, the inhibition at 99.5 µM (SARS-CoV-2 nsp3-mac1 [1]; [14]) was 29.8% and the perc_inhibition_mean (SARS-CoV-2 nsp3-mac1 [2]; concentration 49.75 uM) was 17.833%. For the same molecule, the perc_inhibition_mean (SARS-CoV-2 nsp3-mac1 [2]; concentration 99.5 uM) was 29.785%.

Molecule `O=C(CCN(Cc1cccc(Cl)c1)C(=O)c1ncccc1Cl)N1CCNCC1` [ASAP-0000397] has an inhibition at 49.75 µM (SARS-CoV-2 nsp3-mac1 [1]; [15]) of 2.75%, an inhibition at 99.5 µM (SARS-CoV-2 nsp3-mac1 [1]; [15]) of 7.52% and a perc_inhibition_mean (SARS-CoV-2 nsp3-mac1 [2]; concentration 49.75 uM) of 2.753%. It also gave a perc_inhibition_mean (SARS-CoV-2 nsp3-mac1 [2]; concentration 99.5 uM) of 7.518%.

Molecule `C[C@@]1(C(N)=O)CCCN1C(=O)c1cnn2ccc(C3CCN(C(=O)c4ccccc4)CC3)cc12` [ASAP-0000398] has an inhibition at 49.75 µM (SARS-CoV-2 nsp3-mac1 [1]; [16]) of -8.04%, an inhibition at 99.5 µM (SARS-CoV-2 nsp3-mac1 [1]; [16]) of 10.4% and a perc_inhibition_mean (SARS-CoV-2 nsp3-mac1 [2]; concentration 49.75 uM) of -8.039%. It also gave a perc_inhibition_mean (SARS-CoV-2 nsp3-mac1 [2]; concentration 99.5 uM) of 10.386%.

`O=C(N[C@@H]1COCC[C@H]1O)c1cnn2ccc(C3CCN(C(=O)c4ccccc4)CC3)cc12` [ASAP-0000399] was tested, and the inhibition at 49.75 µM (SARS-CoV-2 nsp3-mac1 [1]; [17]) was -5.01%, the inhibition at 99.5 µM (SARS-CoV-2 nsp3-mac1 [1]; [17]) was -4.48% and the perc_inhibition_mean (SARS-CoV-2 nsp3-mac1 [2]; concentration 49.75 uM) was -5.013%. It also gave a perc_inhibition_mean (SARS-CoV-2 nsp3-mac1 [2]; concentration 99.5 uM) of -4.477%.

`Cc1cc(CNC(=O)c2cnn3ccc(C4CCN(C(=O)c5ccccc5)CC4)cc23)n(C)n1` [ASAP-0000400] gave an inhibition at 49.75 µM (SARS-CoV-2 nsp3-mac1 [1]; [18]) of -5.51%, an inhibition at 99.5 µM (SARS-CoV-2 nsp3-mac1 [1]; [18]) of -8.12% and a perc_inhibition_mean (SARS-CoV-2 nsp3-mac1 [2]; concentration 49.75 uM) of -5.508%. The perc_inhibition_mean (SARS-CoV-2 nsp3-mac1 [2]; concentration 99.5 uM) was -8.125%.
